Experimental data from patent US8486962B2, “Antifungal agents” (F2G Ltd., priority 2005, dated 2013).
In brackets after ≈: the same amount, converted by molar mass.

Key:
[1] = test system: Aspergillus flavus; assay: MIC, YAG medium, Aspergillus flavus; type: cell-based; settings: YAG medium; for MIC: Aspergillus flavus, read-out: MIC A Flavus 01
Method in brief: (§1)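 In YAG medium (1% glucose, 1% ammonium chloride, 0.5% yeast extract), Aspergillus strains at 1-2×10^4 cfu/ml were read after 24 hrs at 35° C, with MIC at >70% growth inhibition by OD485. C. albicans was run in MOPS-buffered RPMI, pH7.0, at 1-2×10^3 cfu/ml for 24-48 hrs, with MIC at >80% inhibition. The drug range was 50-0.05 mg/L.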

[2] = test system: Aspergillus terreus; assay: MIC, YAG medium, Aspergillus terreus; type: cell-based; settings: YAG medium; for MIC: Aspergillus terreus, read-out: MIC A Terreus 4
Method in brief: as §1

[3] = test system: A Terreus 49; assay: MIC, YAG medium, A Terreus 49; type: cell-based, Aspergillus terreus; settings: YAG medium; for MIC: Aspergillus terreus, read-out: MIC A Terreus 49
Experimental: Measurement of Minimum Inhibitory Concentrations (MICs)
Between 1 and 5 mgs of compound were accurately weighed out into a sterile Eppendorf tube. The compound was dissolved in DMSO to give a solution containing 5 mg/ml. Tubes were stored at −20° C. until required.
On the day of testing thawed solutions were vortex mixed to ensure homogeneity. 30 μl of solution was removed and added to 570 μl of sterile water in a separate sterile Eppendorf. The thoroughly mixed solution was used to prepare a series of doubling dilutions in water, in a deep well plate. Eleven replicate plates were prepared using a Minitrak by aspirating 20 μl from each well into eleven clear polystyrene 96 well plates.
Spores of Aspergillus spp (Aspergillus fumigatus, Aspergillus terreus, Aspergillus niger and Aspergillus flavus) were harvested from cultures grown on Sabarauds agar for 5 days, and resuspended in PBS/Tween 80 to approx 1×10^7 cfu/ml Other filamentous fungi (Fusarium solani, Scedosporium spp., Trichophyton spp., Absidia corymbifera), were grown on Sabarauds agar for 2-10 days and spores/hyphae resuspended in PBS/Tween to give approx 1×10^7 cfU/ml. Candida species (Candida albicans, Candida glabrata, Candida krusei, Candida parapsilosis and Candida tropicalis) were grown on Sabarauds agar, cells were harvested from the agar using a sterile loop and resuspended in PBS/Tween 80 to approx 1×10^6 cfu/ml. Each organism suspension was diluted in RPMI medium, containing 2% glucose and 0.135M MOPS buffer (pH7.0) to 2×10^4 cfu/ml for Aspergillus spp and other filamentous fungi and 2×10^3 cfu/ml for yeast. 80 μl of an organism suspension was added to each well of the plate containing drug dilutions.
This produced MIC plates with a drug range 50-0.05 mg/L and organism inocula of 1-2×10^4 cfu/ml for Aspergillus spp and other filamentous fungi and 1-2×10^3 cfu/ml for yeasts. All plates were incubated for 24-48 hrs at 35° C. Growth was assessed by monitoring the optical density at 485 nm for each well. The MIC of a compound is the lowest drug concentration that inhibits growth of an organism by >80% compared with a drug free control. MICs are recorded as mg/L. Other growth media can be used for susceptibility testing, and the activity of the described compounds can also be assessed in a medium comprising, 1% glucose, 1% ammonium chloride and 0.5% yeast extract (YAG medium). To perform MIC tests in this medium, dilutions of compounds are prepared in microtitre plates as described above. Fungal strains to be tested are grown and harvested in an identical manner to that described above, each organism suspension is then diluted in YAG medium to 2×10^4 cfu/ml for Aspergillus spp and other filamentous fungi and 2×10^3 cfu/ml for yeast. 80 μl of an organism suspension was added to each well of the plate containing drug dilutions. This produced MIC plates with a drug range 50-0.05 mg/L and organism inocula of 1-2×10^4 cfu/ml for Aspergillus spp and other filamentous fungi and 1-2×10^3 cfu/ml for yeasts. All plates were incubated for 24 hrs at 35° C. Growth was assessed by monitoring the optical density at 485 nm for each well. The MIC of a compound is the lowest drug concentration that inhibits growth of an organism by >70% compared with a drug free control. MICs are recorded as mg/L. In cases where the MIC of an organism is […]0.05 mg/L the MIC is repeated using a concentration range of 0.5-0.0005 mg/L. MIC tests in YAG medium have more clear-cut endpoints and have slightly lower MICS than those performed in RPMI medium.
The following organisms were tested: Aspergillus fumigatus AF293 and Aspergillus fumigatus AF210, Aspergillus niger, Aspergillus terreus, Aspergillus favus, Candida albicans, Candida krusei, Candida tropicalis, Candida glabrata, Candida parapsilosis, Trichophyton rubrum, Trichophyton mentagrophytes, Scedosporium prolificans, Scedosporium apiospermum, Absidia corymbifera, Fusarium solani.

[4] = test system: Aspergillus fumigatus AF293; assay: MIC, YAG medium, Aspergillus fumigatus AF293; type: cell-based; settings: YAG medium; for MIC: Aspergillus fumigatus, AF293, read-out: MIC A Fum. 293
Method in brief: as §1

[5] = test system: Aspergillus fumigatus AF210; assay: MIC, YAG medium, Aspergillus fumigatus AF210; type: cell-based; settings: YAG medium; for MIC: Aspergillus fumigatus, AF210, read-out: MIC A Fum. 210
Method in brief: as §1

[6] = test system: Aspergillus niger; assay: MIC, YAG medium, Aspergillus niger; type: cell-based; settings: YAG medium; for MIC: Aspergillus niger, read-out: MIC A Niger 1
Method in brief: as §1

Compound | MIC A Flavus 01 [1] | MIC A Terreus 4 [2] | MIC A Terreus 49 [3] | MIC A Fum. 293 [4] | MIC A Fum. 210 [5] | MIC A Niger 1 [6] | MIC [1] | MIC [2] | MIC [3] | MIC [4] | MIC [5] | MIC [6]
2-Oxo-2-(2-pyridin-3-yl-indolizin-3-yl)-N-(3-trifluoromethyl-phenyl)-acetamide [Example 223] | 0.062 µg/mL | 0.12 µg/mL | 0.031 µg/mL | 0.5 µg/mL | 0.25 µg/mL | 0.5 µg/mL | – | – | – | – | – | –
CON=C(C)c1ccc(NC(=O)C(=O)c2c(-c3ccccc3)cc3ccccn23)cc1 (mixture of isomers) [Example 243, N-(4-{1-[(E/Z)-Methoxyimino]-ethyl}-phenyl)-2-oxo-2-(2-phenyl-indolizin-3-yl)-acetamide] | 0.015 µg/mL | 0.008 µg/mL | 0.004 µg/mL | 0.062 µg/mL | 0.12 µg/mL | 0.015 µg/mL | – | – | – | – | – | –
CC(=NO)c1ccc(NC(=O)C(=O)c2c(-c3ccccc3)cc3ccccn23)cc1 (mixture of isomers) [Example 250, N-(4-{1-[(E/Z)-Hydroxyimino]-ethyl}-phenyl)-2-oxo-2-(2-phenyl-indolizin-3-yl)-acetamide] | 0.1 µg/mL | 0.1 µg/mL | 0.05 µg/mL | 0.2 µg/mL | 0.8 µg/mL | 0.05 µg/mL | – | – | – | – | – | –
COc1ccc(NC(=O)C(=NOCCN(C)C)c2c(-c3ccccc3)cc3ccccn23)cc1 (mixture of isomers) [Example 295, 2-[(E/Z)-2-Dimethylamino-ethoxyimino]-N-(4-methoxy-phenyl)-2-(2-phenyl-indolizin-3-yl)-acetamide] | 12.5 µg/mL | 6.25 µg/mL | 6.25 µg/mL | >50 µg/mL | 50 µg/mL | 25 µg/mL | – | – | – | – | – | –
COc1ccc(NC(=O)C(=NOCCCN(C)C)c2c(-c3ccccc3)cc3ccccn23)cc1 (mixture of isomers) [Example 296, 2-[(E/Z)-3-Dimethylamino-propoxyimino]-N-(4-methoxy-phenyl)-2-(2-phenyl-indolizin-3-yl)-acetamide] | 12.5 µg/mL | 6.25 µg/mL | 6.25 µg/mL | >50 µg/mL | >50 µg/mL | 25 µg/mL | – | – | – | – | – | –
COc1ccc(NC(=O)C(=NOCCCC(=O)O)c2c(-c3ccccc3)cc3ccccn23)cc1 (mixture of isomers) [Example 297, 4-[1-(4-Methoxy-phenylcarbamoyl)-1-(2-phenyl-indolizin-3-yl)-meth-(E/Z)-ylideneaminooxy]-butyric acid] | 0.4 µg/mL | 0.8 µg/mL | 0.4 µg/mL | 12.5 µg/mL | 12.5 µg/mL | 1.6 µg/mL | – | – | – | – | – | –
Cc1ccc(NC(=O)C(=O)c2c(-c3ccccc3)cc3ccccn23)cc1 [Example 135, 2-Oxo-2-(2-phenyl-indolizin-3-yl)-N-p-tolyl-acetamide] | – | – | – | – | – | – | 0.015 µg/mL (≈ 0.0423 µM) | 0.008 µg/mL (≈ 0.0226 µM) | 0.002 µg/mL (≈ 0.00564 µM) | 0.12 µg/mL (≈ 0.339 µM) | 0.062 µg/mL (≈ 0.175 µM) | 0.015 µg/mL (≈ 0.0423 µM)
O=C(Nc1ccccc1)C(=O)c1c(-c2ccccc2)cc2ccccn12 [Example 136, 2-Oxo-N-phenyl-2-(2-phenyl-indolizin-3-yl)-acetamide] | – | – | – | – | – | – | 0.031 µg/mL (≈ 0.0911 µM) | 0.031 µg/mL (≈ 0.0911 µM) | 0.004 µg/mL (≈ 0.0118 µM) | 0.25 µg/mL (≈ 0.734 µM) | 0.12 µg/mL (≈ 0.353 µM) | 0.031 µg/mL (≈ 0.0911 µM)
COc1ccccc1NC(=O)C(=O)c1c(-c2ccccc2)cc2ccccn12 [Example 137, N-(2-Methoxy-phenyl)-2-oxo-2-(2-phenyl-indolizin-3-yl)-acetamide] | – | – | – | – | – | – | 0.125 µg/mL (≈ 0.337 µM) | 0.06 µg/mL (≈ 0.162 µM) | 0.06 µg/mL (≈ 0.162 µM) | 0.2 µg/mL (≈ 0.54 µM) | 0.5 µg/mL (≈ 1.35 µM) | 0.062 µg/mL (≈ 0.167 µM)
COc1cccc(NC(=O)C(=O)c2c(-c3ccccc3)cc3ccccn23)c1 [Example 138, N-(3-Methoxy-phenyl)-2-oxo-2-(2-phenyl-indolizin-3-yl)-acetamide] | – | – | – | – | – | – | 0.015 µg/mL (≈ 0.0405 µM) | 0.031 µg/mL (≈ 0.0837 µM) | 0.004 µg/mL (≈ 0.0108 µM) | 0.12 µg/mL (≈ 0.324 µM) | 0.12 µg/mL (≈ 0.324 µM) | 0.12 µg/mL (≈ 0.324 µM)
COc1ccc(NC(=O)C(=O)c2c(-c3ccccc3)cc3ccccn23)cc1 [Example 139, N-(4-Methoxy-phenyl)-2-oxo-2-(2-phenyl-indolizin-3-yl)-acetamide] | – | – | – | – | – | – | 0.008 µg/mL (≈ 0.0216 µM) | 0.008 µg/mL (≈ 0.0216 µM) | 0.002 µg/mL (≈ 0.0054 µM) | 0.12 µg/mL (≈ 0.324 µM) | 0.12 µg/mL (≈ 0.324 µM) | 0.031 µg/mL (≈ 0.0837 µM)
COC(=O)c1ccc(NC(=O)C(=O)c2c(-c3ccccc3)cc3ccccn23)cc1 [Example 140, 4-[2-Oxo-2-(2-phenyl-indolizin-3-yl)-acetylamino]-benzoic acid methyl ester] | – | – | – | – | – | – | 0.031 µg/mL (≈ 0.0778 µM) | 0.031 µg/mL (≈ 0.0778 µM) | 0.015 µg/mL (≈ 0.0376 µM) | 0.12 µg/mL (≈ 0.301 µM) | 0.12 µg/mL (≈ 0.301 µM) | 0.031 µg/mL (≈ 0.0778 µM)
COC(=O)c1cccc(NC(=O)C(=O)c2c(-c3ccccc3)cc3ccccn23)c1 [Example 141, 3-[2-Oxo-2-(2-phenyl-indolizin-3-yl)-acetylamino]-benzoic acid methyl ester] | – | – | – | – | – | – | 0.008 µg/mL (≈ 0.0201 µM) | 0.031 µg/mL (≈ 0.0778 µM) | 0.015 µg/mL (≈ 0.0376 µM) | 0.12 µg/mL (≈ 0.301 µM) | 0.12 µg/mL (≈ 0.301 µM) | 0.25 µg/mL (≈ 0.627 µM)
CCCOC(=O)c1ccc(NC(=O)C(=O)c2c(-c3ccccc3)cc3ccccn23)cc1 [Example 143, 4-[2-Oxo-2-(2-phenyl-indolizin-3-yl)-acetylamino]-benzoic acid propyl ester] | – | – | – | – | – | – | 0.031 µg/mL (≈ 0.0727 µM) | 0.031 µg/mL (≈ 0.0727 µM) | 0.008 µg/mL (≈ 0.0188 µM) | 0.061 µg/mL (≈ 0.143 µM) | 0.06 µg/mL (≈ 0.141 µM) | 0.015 µg/mL (≈ 0.0352 µM)
